{
  "source": "patent US7855228B2",
  "about": "“Antibiotics targeting MreB” (The Board of Trustees of the Leland Stamford Junior …, priority 2005, dated 2010)",
  "key": {"B. subtilis 168": {"system": "B. subtilis 168", "test": "Determination of minimum inhibitory concentration (MIC)", "type": "cell-based, Bacillus subtilis", "conditions": "read-out: MIC B. subtilis", "how_it_was_run": "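Two-fold serial agar dilution on L agar and also on Mueller Hinton agar (pH 7.3); 10 µl of stationary-phase culture diluted in 0.85% NaCl to 10^6 cells/ml spotted per plate. MIC taken as lowest concentration inhibiting growth.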"}, "E. coli JE1011, JST975": {"system": "E. coli JE1011, JST975", "test": "Paper disk growth inhibitory zone", "type": "cell-based", "conditions": "paper disk φ 8 mm, 200 μg of A22, 24 h, 37° C.", "method": "Isolation of A22-resistant mutant Our strategy for identifying the molecular target(s) of A22 involved isolating resistant mutants which grow in the presence of concentrations of A22 that inhibit growth of the parent strain. After 24 h incubation at 37° C., E. coli strains such as JE1011 formed a turbid growth inhibitory zone (φ 12 mm) around a paper disk (φ 8 mm) containing 200 μg of A22. To identify a more suitable parent strain for our selection, we screened for a more drug-sensitive strain that would form clear growth inhibitory zones under similar incubation conditions.\nBacterial strains used E. coli K-12 strains JE1011 (F^− leuB thr trp his thy ara lac xyl mtl rpsL tonA), JST975 (the same as JE1011 but ponB) (Tamaki et al. 1977), W3110 (wild-type), MG1655 (wild-type), DV14 (F^− metB1 panD2 panF1 zhc-12::Tn10) (Vallari & Rock 1985), CAG12149 (F^− zbd-601::Tn10) (Singer et al. 1989), AT1325-678 (F^− lip-9 thi-1 his-4 purB15 proA2 mtl-1 Δmre678) (Wachi et al. 1987) and JM109 [recA1 endA1 gyrA96 thi-1 hsdR17 Δ(lac-proAB) supE44 relA1 F′ (traD36 proAB^+ lacI^q lacZΔM15)] (Yanisch-Perron et al. 1985) were used in this study. Cells were grown in Lennox (L) medium (1% Bactopeptone, 0.5% yeast extracts, 0.5% NaCl, 0.1% glucose, pH 7.2, supplemented with 20 μg/ml thymine). For the growth of AT1325-678, 0.1 μg/ml lipoic acid was supplemented. […]"}, "E. coli cells": {"system": "E. coli cells", "test": "Cell lysis", "type": "cell-based", "from_the_text": "To facilitate the isolation of A22-resistant mutants a PBP 1B-defective (ponB^−) mutant strain, JST975, which forms a clear growth inhibitory zone upon A22 treatment, was selected as the parent strain in our screen. […] This correlates well with the increased sensitivity of mreB mutant strains to β-lactam antibiotics. In future screens for antibacterial agents derived from A22, it will be important to consider that the antibacterial effect of A22 on wild-type E. coli cells may be enhanced by simultaneous treatment with sub-lethal concentrations of β-lactam antibiotics."}},
  "note": "Where two headings read alike, the source gives them in different places.",
  "data": [
    {"molecule": "N=C(N)SCc1ccc(Cl)c(Cl)c1", "note": "[Compound 1, S-(3,4-dichlorobenzyl)isothiourea]", "values": [
      {"measurement": "MIC", "setting": "B. subtilis 168; Bacillus subtilis, 168, Example 2, methods as in Example 1", "result": 100, "unit": "µg/mL"},
      {"measurement": "MIC", "setting": "B. subtilis 168; Bacillus subtilis, 168, Table 1, B. subtilis 168", "result": 100, "unit": "µg/mL"},
      {"measurement": "Growth inhibitory zone (turbid)", "setting": "E. coli JE1011, JST975; JE1011", "result": 12, "unit": "mm"},
      {"measurement": "Growth inhibitory zone (clear)", "setting": "E. coli JE1011, JST975; JST975 (ponB)", "result": 32, "unit": "mm"},
      {"measurement": "Lysis of E. coli cells in the absence of PBP 1B", "setting": "E. coli cells; JST975 liquid culture", "result": "induces cell lysis"},
      {"measurement": "Lysis of wild-type E. coli cells", "setting": "E. coli cells; wild-type", "result": "does not lyse"}
    ]}
  ]
}
